Where two headings read alike, the source gives them in different places.
Tests used:
Type in all cases: in vivo, rat (Wistar-strain)
Blood Glucose = test: Hypoglycemic effect in glucose-loaded fasted rats (blood glucose); conditions: for inhibition in vivo at 100 mg/kg: Rattus norvegicus, vs control, read-out: Blood Glucose Decrease; for inhibition in vivo at 100 mg/kg / Blood Glucose Level: 100 mg/kg oral, 2 h
Experimental: Groups of 7 Wistar-strain male rats (weighing about 200 g) which were fasted for 18 hours were used for measurement of hypoglycemic effect according to the modified method by Dulin et al. [Dulin, W. L. et al., Proc. Soc. Expl. Med., 107, 245 (1961)]. That is, 0.5 ml/100 g of 20% aqueous solution of glucose was subcutaneously administered to the backs of rats to prevent a decrease in blood glucose level because of the fasting. Immediately thereafter the test drug suspended in 0.5% aqueous C.M.C. solution was orally given, and 2 hours later, the animals underwent laparotomy under pentobarbital anesthesia, then blood was drawn from the vena cava. The obtained blood sample was allowed to stand for 30 minutes to complete the coagulation and was centrifuged to obtain the serum. Blood sugar level was measured according to the mutalotase GOD method [Trinder, Ann. Clin. Biochem., 6, 24 […]]. Asterisks indicate significant differences (*: p<0.05, **: p<0.01, ***: p<0.001) from the control.

Serum Triglyceride = test: Hypolipidemic effect: serum triglyceride; conditions: 2 h
Experimental: (§1) The test drugs suspended in 0.5% aqueous C.M.C. solution were orally administered to groups of 8 Wistar-strain male rats (weighing about 185 g) which were fasted for 18 to 20 hours. 2 hours later, the serum was obtained in the same manner described in (2). Serum triglyceride was measured according to the GPO-p-chlorophenol colorimetric determination [Richard W. Spayd et al., Clinical Chemistry, 24, 1343 (1978)], serum free fatty acid was measured according to the Acyl CoA Synthetase-Acyl CoA Oxidase method [Shimizu S. et al., Biochem. Biophys. Res. Commun., 91, 108 (1979)], free fatty acid was measured according to the enzymatic method [Charles C. Allain et al., Clin. Chem., 20, No. 4, 470 (1974)] and total cholesterol was measured according to the enzymatic method [Takayama M. et al., Clinica Chimica Acta, 79, 93 (1977)]. Asterisks indicate significant differences (*: p<0.05, **: p<00.01, ***: p<0.001) from the control.

Serum Phospholipid = test: Hypolipidemic effect: serum phospholipid; conditions: 2 h
Experimental: as §1

Total Serum Cholesterol = test: Hypolipidemic effect: total serum cholesterol; conditions: 2 h
Experimental: as §1

Serum Free Fatty Acid = test: Hypolipidemic effect: serum free fatty acid; conditions: 2 h
Experimental: as §1

[1] = 100 mg/kg oral, control 65 ± 5 (compounds 2-12), 57 ± 4 (compounds 15-29)
[2] = Rattus norvegicus, 100 mg/kg oral, vs control, read-out: Serum Triglyceride Decrease
[3] = 100 mg/kg oral, control 79 ± 2 (compounds 2-12), 72 ± 2 (compounds 15-29)
[4] = Rattus norvegicus, 100 mg/kg oral, vs control, read-out: Serum Phospholipid Decrease
[5] = 100 mg/kg oral, control 44 ± 2 (compounds 4-12), 41 ± 1 (compounds 15-29)
[6] = Rattus norvegicus, 100 mg/kg oral, vs control, read-out: Total Serum Cholesterol Decrease
[7] = 100 mg/kg oral, control 0.53 ± 0.03 (compounds 2-12), 0.52 ± 0.03 (compounds 15-24)
[8] = Rattus norvegicus, 100 mg/kg oral, vs control, read-out: Serum Free Fatty Acid Decrease

SMILES	inhibition in vivo at 100 mg/kg (Blood Glucose; Table 2)	Blood Glucose Level (Blood Glucose; Table 2, control 133 ± 6)	Serum Triglyceride Level (Serum Triglyceride; [1])	inhibition in vivo at 100 mg/kg (Serum Triglyceride; [2])	inhibition in vivo at 100 mg/kg (Blood Glucose; Table 3)	Blood Glucose Level (Blood Glucose; Table 3, control 133 ± 4)	Serum Phospholipid Level (Serum Phospholipid; [3])	inhibition in vivo at 100 mg/kg (Serum Phospholipid; [4])	Total Serum Cholesterol Level (Total Serum Cholesterol; [5])	inhibition in vivo at 100 mg/kg (Total Serum Cholesterol; [6])	Serum Free Fatty Acid Level (Serum Free Fatty Acid; [7])	inhibition in vivo at 100 mg/kg (Serum Free Fatty Acid; [8])	further results
CCCCCCCCCCN1C(=O)NC(=O)C1=O [compound 9, 1-decylimidazolidinetrione]	18%	109 ± 4 mg/dL	–	–	–	–	–	–	–	–	–	–	–
CCN1C(=O)C(=O)N(C2CCCC2)C1=O [compound 13, 1-cyclopentyl-3-ethylimidazolidinetrione]	14.7%	116 ± 5 mg/dL	–	–	–	–	–	–	–	–	–	–	–
O=C1NC(=O)N(Cc2ccccc2F)C1=O [compound 16, 1-(2-fluorobenzyl)imidazolidinetrione]	–	–	30 ± 1 mg/dL	47.4%	11.3%	118 ± 4 mg/dL	54 ± 1 mg/dL	25%	33 ± 2 mg/dL	19.5%	–	–	–
O=C1NC(=O)N(Cc2ccc(F)cc2)C1=O [compound 18, 1-(4-fluorobenzyl)imidazolidinetrione]	–	–	30 ± 1 mg/dL	47.4%	20.3%	106 ± 3 mg/dL	56 ± 1 mg/dL	22.2%	34 ± 1 mg/dL	17.1%	0.42 ± 0.02 mEq/l	19.2%	–
Cc1ccc(CN2C(=O)NC(=O)C2=O)cc1 [compound 26, 1-(4-methylbenzyl)imidazolidinetrione]	–	–	37 ± 1 mg/dL	35.1%	9.8%	120 ± 2 mg/dL	58 ± 1 mg/dL	19.4%	37 ± 1 mg/dL	9.8%	–	–	–
Cc1cccc(CN2C(=O)NC(=O)C2=O)c1 [compound 25, 1-(3-methylbenzyl)imidazolidinetrione]	–	–	33 ± 2 mg/dL	42.1%	13.5%	115 ± 3 mg/dL	57 ± 2 mg/dL	20.8%	36 ± 1 mg/dL	12.2%	–	–	–
CCCCCCN1C(=O)NC(=O)C1=O [compound 7, 1-hexylimidazolidinetrione]	23.3%	102 ± 6 mg/dL	38 ± 3 mg/dL	41.5%	–	–	66 ± 2 mg/dL	16.5%	–	–	–	–	–
O=C1NC(=O)N(C2CCCCC2)C1=O [compound 11, 1-cyclohexylimidazolidinetrione]	24.1%	101 ± 2 mg/dL	27 ± 1 mg/dL	58.5%	–	–	60 ± 2 mg/dL	24.1%	39 ± 1 mg/dL	11.4%	0.34 ± 0.01 mEq/l	35.8%	–
O=C1NC(=O)N(Cc2ccc([N+](=O)[O-])cc2)C1=O [compound 23, 1-(4-nitrobenzyl)imidazolidinetrione]	–	–	38 ± 2 mg/dL	33.3%	12%	117 ± 3 mg/dL	65 ± 2 mg/dL	9.7%	–	–	–	–	–
CCCCNC(=O)NS(=O)(=O)c1ccc(C)cc1 [Tolubutamide, reference compound]	63.9%	48 ± 1 mg/dL	–	–	–	–	–	–	–	–	–	–	Serum Triglyceride Level (Serum Triglyceride; 50 mg/kg oral, control 65 ± 5): 53 ± 4 mg/dL; inhibition in vivo at 50 mg/kg (Serum Triglyceride; Rattus norvegicus, 50 mg/kg oral, vs control, read-out: Serum Triglyceride Decrease): 18.5%; Serum Free Fatty Acid Level (Serum Free Fatty Acid; 50 mg/kg oral, control 0.53 ± 0.03): 0.44 ± 0.02 mEq/l; inhibition in vivo at 50 mg/kg (Serum Free Fatty Acid; Rattus norvegicus, 50 mg/kg oral, vs control, read-out: Serum Free Fatty Acid Decrease): 15.7%; Blood sugar effect (in words) (Blood Glucose; oral, rats): excessive hypoglycemia; Serum Phospholipid Level (Serum Phospholipid; 50 mg/kg oral, control 79 ± 2): 75 ± 2 mg/dL; inhibition in vivo at 50 mg/kg (Serum Phospholipid; Rattus norvegicus, 50 mg/kg oral, vs control, read-out: Serum Phospholipid Decrease): 5.1%; Total Serum Cholesterol Level (Total Serum Cholesterol; 50 mg/kg oral, control 44 ± 2): 46 ± 1 mg/dL; inhibition in vivo at 50 mg/kg (Total Serum Cholesterol; Rattus norvegicus, 50 mg/kg oral, vs control, read-out: Total Serum Cholesterol Decrease): -4.5%
O=C1NC(=O)N(C2CCCC2)C1=O [compound 10, 1-cyclopentylimidazolidinetrione]	24.8%	100 ± 4 mg/dL	–	–	–	–	–	–	–	–	–	–	–
CC(C)CN1C(=O)NC(=O)C1=O [compound 5, 1-iso-butylimidazolidinetrione]	39.1%	81 ± 1 mg/dL	–	–	–	–	–	–	–	–	–	–	–
CN1C(=O)C(=O)N(C)C1=O [compound 12, 1,3-dimethylimidazolidinetrione]	15%	115 ± 4 mg/dL	35 ± 3 mg/dL	46.2%	–	–	61 ± 2 mg/dL	22.8%	39 ± 1 mg/dL	11.4%	0.37 ± 0.03 mEq/l	30.2%	–
O=C1NC(=O)N(Cc2cccc(F)c2)C1=O [compound 17, 1-(3-fluorobenzyl)imidazolidinetrione]	–	–	30 ± 1 mg/dL	47.4%	13.5%	115 ± 2 mg/dL	58 ± 1 mg/dL	19.4%	37 ± 1 mg/dL	9.8%	–	–	–
COc1ccc(CN2C(=O)NC(=O)C2=O)cc1 [compound 29, 1-(4-methoxybenzyl)imidazolidinetrione]	–	–	43 ± 3 mg/dL	24.6%	9.8%	120 ± 2 mg/dL	58 ± 1 mg/dL	19.4%	36 ± 1 mg/dL	12.2%	–	–	–
O=C1NC(=O)N(Cc2ccc(Br)cc2)C1=O [compound 21, 1-(4-bromobenzyl)imidazolidinetrione]	–	–	35 ± 2 mg/dL	38.6%	–	–	57 ± 1 mg/dL	20.8%	36 ± 1 mg/dL	12.2%	0.44 ± 0.02 mEq/l	15.2%	–
CC(C)(C)N1C(=O)NC(=O)C1=O [compound 6, 1-tert-butylimidazolidinetrione]	18%	109 ± 4 mg/dL	–	–	–	–	–	–	–	–	–	–	–
CCCCN1C(=O)NC(=O)C1=O [compound 4, 1-butylimidazolidinetrione]	33.8%	88 ± 7 mg/dL	23 ± 1 mg/dL	64.6%	–	–	58 ± 1 mg/dL	26.6%	39 ± 1 mg/dL	11.4%	0.27 ± 0.02 mEq/l	49.1%	–
Cc1ccccc1CN1C(=O)NC(=O)C1=O [compound 24, 1-(2-methylbenzyl)imidazolidinetrione]	–	–	30 ± 1 mg/dL	47.4%	12.8%	116 ± 3 mg/dL	56 ± 1 mg/dL	22.2%	36 ± 1 mg/dL	12.2%	0.45 ± 0.01 mEq/l	13.5%	–
